By inhibition is commonly meant the relative decrease from the control value, in per cent.

The first assay has as its system IL-1β release from THP-1 cells. Briefly: IL-1β Release Assay (Alternate Method), THP-1 cells. The assay is classed as cell-based, human. The conditions noted are these: Homo sapiens; at 0.3 μM; THP-1 cells; read-out: IL-1β % inhibition. Here is the method:
THP-1 cells (ATCC Cat #285-IF-100) are plated in 96 well plates at a concentration of 200,000 cells per well and allowed to differentiate in RPMI-1640 media (ATCC Cat #30-2001) containing 10% FBS, 100 IU/mL penicillin, 100 ug/mL streptomycin, 100 ng/mL LPS and 100 ng/mL IFN-γ for 16 hours. Following differentiation, the cells are treated for an additional 2 hours in RPMI-1640 media containing 100 IU/mL penicillin, 100 ug/mL streptomycin and fresh LPS at 100 ng/mL. The cells are then pretreated for 30 minutes with the compound of interest at the appropriate concentration in RPMI media containing 100 IU/mL penicillin, 100 ug/mL streptomycin. Following the pretreatment 2′, 3′-O-(4-benzoylbenzoyl)-adenosine 5′-triphosphate (Sigma Aldrich Cat#B6396) is added to a final concentration of 250 uM and the cells incubated for an additional 45 minutes. 30 uL of cell supernatant is then collected and IL-1β levels determined via ELISA (R&D systems Cat. #HSLB50) according to manufacturer's recommendations using the Tecan Safire plate reader. Background adjusted IL-1β levels of drug treated and non-treated cells are used to calculate the percent inhibition.
With `CC(C)(C(=O)Nc1ncnc2c1CCN(C(=O)c1c(F)cccc1F)C2)C12CC3CC(CC(C3)C1)C2` [Compound 361], the inhibition at 0.3 µM was in the range of 0 to 25%.
`O=C(CC12CC3CC(CC(C3)C1)C2)Nc1ncnc2c1CCNC2` [Compound 6, 2-Adamantan-1-yl-N-(5,6,7,8-tetrahydro-pyrido[3,4-d]pyrimidin-4-yl)-acetamide]: the inhibition at 0.3 µM was in the range of 0 to 25%.

The same assay, now with this note: at 0.3 μM; THP-1 cells.
Consider `COc1ccc(CN2CCc3c(ncnc3NC(=O)CC34CC5CC(CC(C5)C3)C4)C2)c(F)c1` [Compound 95], for which the IL-1β % inhibition entry was “++++ (compound exhibited 75% or greater inhibition at 0.3 μM)”.
The same measure, in the same setting: in the case of `O=C(CC12CC3CC(CC(C3)C1)C2)Nc1ncnc2c1CCN(Cc1ccccc1Cl)C2` [Compound 27] it was “+++ (compound exhibited 50-75% inhibition at 0.3 μM)”; in that of `COc1ccc(Oc2ccc(S(=O)(=O)N3CCc4c(ncnc4NC(=O)CC45CC6CC(CC(C6)C4)C5)C3)cc2)cc1` [Compound 175], “+++ (compound exhibited 50-75% inhibition at 0.3 μM)”; in that of `COc1cccc(C(=O)N2CCc3c(ncnc3NC(=O)CC34CC5CC(CC(C5)C3)C4)C2)c1` [Compound 250], “+++ (compound exhibited 50-75% inhibition at 0.3 μM)”.
The same measure, in the same setting: in the case of `O=C(CC12CC3CC(CC(C3)C1)C2)Nc1ncnc2c1CCN(S(=O)(=O)c1ccc(F)c(Cl)c1)C2` [Compound 193] it was “+ (compound exhibited 0-25% inhibition at 0.3 μM)”.
Same read-out and setting: next, `Cc1ccccc1S(=O)(=O)N1CCc2c(ncnc2NC(=O)CC23CC4CC(CC(C4)C2)C3)C1` [Compound 199]: “++++ (compound exhibited 75% or greater inhibition at 0.3 μM)”; `O=C(CC12CC3CC(CC(C3)C1)C2)Nc1ncnc2c1CCN(S(=O)(=O)c1ccc(F)cc1Cl)C2` [Compound 211]: “+ (compound exhibited 0-25% inhibition at 0.3 μM)”; `O=C(NCC12CC3CC(CC(C3)C1)C2)c1ncnc2c1CCN(Cc1ccc3c(c1)OCCO3)C2` [Compound 138]: “++++ (compound exhibited 75% or greater inhibition at 0.3 μM)”.
Take `O=C(CC1CCCCC1)Nc1ncnc2c1CCN(Cc1ccccc1)C2` [Compound 9]: the IL-1β % inhibition result was “+ (compound exhibited 0-25% inhibition at 0.3 μM)”.
`Cc1ccccc1CN1CCc2c(ncnc2NC(=O)CC23CC4CC(CC(C4)C2)C3)C1` [Compound 31]: the IL-1β % inhibition result is reported as “+++ (compound exhibited 50-75% inhibition at 0.3 μM)”.
Still for that read-out and setting: next, `CC12CC3CC(C)(C1)CC(CC(=O)Nc1ncnc4c1CCN(C(=O)c1cccc(C(F)(F)F)c1)C4)(C3)C2` [Compound 383]: “+ (compound exhibited 0-25% inhibition at 0.3 μM)”.
Turning to `COc1ccc(CN2CCc3c(ncnc3NC(=O)CC34CC5CC(CC(C5)C3)C4)C2)cc1C` [Compound 39], the IL-1β % inhibition entry is listed as “+ (compound exhibited 0-25% inhibition at 0.3 μM)”.
For `O=C(CC12CC3CC(CC(C3)C1)C2)Nc1ncnc2c1CCN(Cc1ccc(Cl)cc1Cl)C2` [Compound 319], the IL-1β % inhibition result is on record as “+ (compound exhibited 0-25% inhibition at 0.3 μM)”.
Same read-out and setting: in the case of `O=C(CC12CC3CC(CC(C3)C1)C2)Nc1ncnc2c1CCN(S(=O)(=O)c1ccc(F)cc1)C2` [Compound 152] it was “+ (compound exhibited 0-25% inhibition at 0.3 μM)”; in that of `CN1CCOc2cc(S(=O)(=O)N3CCc4c(ncnc4NC(=O)CC45CC6CC(CC(C6)C4)C5)C3)ccc21` [Compound 157], “+ (compound exhibited 0-25% inhibition at 0.3 μM)”.
For `COc1ccc(CN2CCc3c(ncnc3NC(=O)CC34CC5CC(CC(C5)C3)C4)C2)cc1` [Compound 40], the IL-1β % inhibition result was “+ (compound exhibited 0-25% inhibition at 0.3 μM)”.
The same measure, in the same setting: next, `CS(=O)(=O)c1ccc(CN2CCc3c(ncnc3NC(=O)CC34CC5CC(CC(C5)C3)C4)C2)cc1` [Compound 15]: “+ (compound exhibited 0-25% inhibition at 0.3 μM)”; `O=C(CC1CCCCCC1)Nc1ncnc2c1CCN(CC1CCCCC1)C2` [Compound 127]: “+ (compound exhibited 0-25% inhibition at 0.3 μM)”.
As to `O=C(CC12CC3CC(CC(C3)C1)C2)Nc1ncnc2c1CCN(C(=O)c1cc(F)ccc1F)C2` [Compound 279], the IL-1β % inhibition result is given as “++++ (compound exhibited 75% or greater inhibition at 0.3 μM)”.
Same read-out and setting: in the case of `O=C(CC12CC3CC(CC(C3)C1)C2)Nc1ncnc2c1CCN(Cc1cccc(C(F)(F)F)c1F)C2` [Compound 131] it was “+ (compound exhibited 0-25% inhibition at 0.3 μM)”; in that of `O=C(c1ccc(Cl)cc1)N1CCc2c(ncnc2NC(=O)C23CC4CC(CC(C4)C2)C3)C1` [Compound 399], “+ (compound exhibited 0-25% inhibition at 0.3 μM)”.
Same read-out and setting: next, `CC(C)(C(=O)Nc1ncnc2c1CCN(Cc1ccccc1F)C2)C12CC3CC(CC(C3)C1)C2` [Compound 369]: “+ (compound exhibited 0-25% inhibition at 0.3 μM)”; `O=C(CC12CC3CC(CC(C3)C1)C2)Nc1ncnc2c1CCN(Cc1ccccc1OC(F)F)C2` [Compound 77]: “+ (compound exhibited 0-25% inhibition at 0.3 μM)”.
Still for that read-out and setting: next, `Cc1nn(-c2ccccc2)nc1C(=O)N1CCc2c(ncnc2NC(=O)CC23CC4CC(CC(C4)C2)C3)C1` [Compound 273]: “++++ (compound exhibited 75% or greater inhibition at 0.3 μM)”.

Staying with this assay, now noted: at 0.3 μM; THP-1 cells, BzATP-stimulated.
For the molecule `COc1ccc(C(=O)N2CCc3c(ncnc3NC(=O)C34CC5CC(CC(C5)C3)C4)C2)cc1` [Compound 407], the IL-1β % inhibition entry is reported as “+ (compound exhibited 0-25% inhibition at 0.3 μM)”.
Still for that read-out and setting: in the case of `O=C(Cc1ccc(F)cc1)N1CCc2c(ncnc2NC(=O)C23CC4CC(CC(C4)C2)C3)C1` [Compound 413] it was “++ (compound exhibited 25-50% inhibition at 0.3 μM)”.
Still for that read-out and setting: next, `COc1ccc(S(=O)(=O)N2CCc3c(ncnc3NC(=O)C34CC5CC(CC(C5)C3)C4)C2)cc1OC` [Compound 489]: “+++ (compound exhibited 50-75% inhibition at 0.3 μM)”.
Still for that read-out and setting: in the case of `COc1cccc(CN2CCc3c(ncnc3NC(=O)C34CC5CC(CC(C5)C3)C4)C2)c1` [Compound 584] it was “+ (compound exhibited 0-25% inhibition at 0.3 μM)”; in that of `O=C(COCc1ccccc1)N1CCc2c(ncnc2NC(=O)C23CC4CC(CC(C4)C2)C3)C1` [Compound 428], “+ (compound exhibited 0-25% inhibition at 0.3 μM)”.
On to `O=C(Nc1ncnc2c1CCN(Cc1ccc3c(c1)OCCO3)C2)C12CC3CC(CC(C3)C1)C2` [Compound 589], for which the IL-1β % inhibition entry was “+++ (compound exhibited 50-75% inhibition at 0.3 μM)”.
Still for that read-out and setting: in the case of `CCCS(=O)(=O)N1CCc2c(ncnc2NC(=O)C23CC4CC(CC(C4)C2)C3)C1` [Compound 485] it was “+ (compound exhibited 0-25% inhibition at 0.3 μM)”.
Still for that read-out and setting: in the case of `COc1ccc(Oc2ccc(S(=O)(=O)N3CCc4c(ncnc4NC(=O)C45CC6CC(CC(C6)C4)C5)C3)cc2)cc1` [Compound 509] it was “+++ (compound exhibited 50-75% inhibition at 0.3 μM)”; in that of `O=C(c1ccc(Cl)c(Cl)c1)N1CCc2c(ncnc2NC(=O)C23CC4CC(CC(C4)C2)C3)C1` [Compound 417], “+ (compound exhibited 0-25% inhibition at 0.3 μM)”; in that of `O=C(Nc1ncnc2c1CCN(S(=O)(=O)c1ccc(C(F)(F)F)cc1)C2)C12CC3CC(CC(C3)C1)C2` [Compound 535], “++ (compound exhibited 25-50% inhibition at 0.3 μM)”.
For the molecule `O=C(Nc1ncnc2c1CCN(S(=O)(=O)Cc1cc(C(F)(F)F)cc(C(F)(F)F)c1)C2)C12CC3CC(CC(C3)C1)C2` [Compound 515], the IL-1β % inhibition result is “+++ (compound exhibited 50-75% inhibition at 0.3 μM)”.

The values above are taken from patent US7297700B2, “Bicycloheteroaryl compounds as P2X7 modulators and uses thereof” (Renovis, Inc., priority 2005, dated 2007).
